The supplement of paper PMC12513837

Compound: CC(=O)N1CCc2c(c(N3CCCc4cc(-c5cnn(C)c5)c(C(F)F)cc43)nn2C2CCC(CN3CCN(c4ccc5c(c4)C(=O)N(C4CCC(=O)NC4=O)C5=O)CC3)CC2)C1 [CBPD-409]
Experiment: AUC of viability dose-response curve (relative to vehicle, 8 doses up to 10 µM) (fraction); higher = less sensitive (more viable); extreme values may be limits of the assay
Procedure: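 PRISM multiplexed pooled barcoded cell line viability screen at the Broad Institute, 887 cancer cell lines treated with CBPD-409 (p300/CBP PROTAC degrader) at 8 concentrations in threefold dilution, top dose 10 µM. The read-out is the area under the dose-response curve of relative viability versus vehicle (n=3). AUC < 0.3 is called strongly sensitive and AUC > 0.8 resistant.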

Test System	AUC of viability dose-response curve
U87MG_CENTRAL_NERVOUS_SYSTEM	0.732
U118MG_CENTRAL_NERVOUS_SYSTEM	0.983
U178_CENTRAL_NERVOUS_SYSTEM	0.636
U251MG_CENTRAL_NERVOUS_SYSTEM	0.873
U266B1_HAEMATOPOIETIC_AND_LYMPHOID_TISSUE	0.784
U343_CENTRAL_NERVOUS_SYSTEM	1
U937_HAEMATOPOIETIC_AND_LYMPHOID_TISSUE	1
U2904_HAEMATOPOIETIC_AND_LYMPHOID_TISSUE	0.826
U2940_HAEMATOPOIETIC_AND_LYMPHOID_TISSUE	1
U2973_HAEMATOPOIETIC_AND_LYMPHOID_TISSUE	0.734
UACC62_SKIN	0.901
UACC257_SKIN	1
UBLC1_URINARY_TRACT	0.437
ULA_HAEMATOPOIETIC_AND_LYMPHOID_TISSUE	0.813
UMRC3_KIDNEY	0.929
UMRC7_KIDNEY	0.773
UMUC1_URINARY_TRACT	0.703
UMUC5_URINARY_TRACT	0.749
UMUC6_URINARY_TRACT	0.585
UMUC7_URINARY_TRACT	1
UMUC10_URINARY_TRACT	0.511
UMUC11_URINARY_TRACT	0.736
UMUC13_URINARY_TRACT	0.199
UO31_KIDNEY	1
UPCISCC072_UPPER_AERODIGESTIVE_TRACT	0.625

Test System	AUC of viability dose-response curve
UPCISCC111_UPPER_AERODIGESTIVE_TRACT	1
UPCISCC116_UPPER_AERODIGESTIVE_TRACT	0.827
UW228_CENTRAL_NERVOUS_SYSTEM	1
VAESBJ_SOFT_TISSUE	0.8
VAL_HAEMATOPOIETIC_AND_LYMPHOID_TISSUE	0.56
VMCUB1_URINARY_TRACT	0.443
VMRCRCW_KIDNEY	0.631
VMRCRCZ_KIDNEY	0.584
WAOSEL_HAEMATOPOIETIC_AND_LYMPHOID_TISSUE	0.826
WERIRB1_AUTONOMIC_GANGLIA	1
WM88_SKIN	0.893
WM793_SKIN	0.949
WM983B_SKIN	0.774
WM1799_SKIN	0.639
WM2664_SKIN	0.988
WSUDLCL2_HAEMATOPOIETIC_AND_LYMPHOID_TISSUE	0.505
YAPC_PANCREAS	1
YD8_UPPER_AERODIGESTIVE_TRACT	0.641
YD10B_UPPER_AERODIGESTIVE_TRACT	1
YD15_SALIVARY_GLAND	0.397
YD38_UPPER_AERODIGESTIVE_TRACT	0.559
YH13_CENTRAL_NERVOUS_SYSTEM	0.75
YKG1_CENTRAL_NERVOUS_SYSTEM	0.584
YSCCC_BILIARY_TRACT	0.853
ZR751_BREAST	0.411
